In this assay the test system is cotton aphids (Aphis gossypil). In words: Test method 1: foliar spray on cucumber seedlings infested with cotton aphids. Format: in vivo. Conditions: 200 ppm, spray 10 mL/seedling, counted 5 days after spraying, 25° C. How it is done: Next, Test Examples are used to show effects of the Present compounds on harmful arthropods. In the following Test Examples, the tests were carried out at 25° C. […] Cucumber (Cucumis sativus) seedlings (on the developmental stage of the second true leaf) are planted in a container and approximately 30 cotton aphids (Aphis gossypil) (all stages of life) are released onto the cucumber seedlings. After 1 day, each of said diluted solutions is sprayed into the seedlings in a ratio of 10 mL/seedling. After additional 5 days, the number of the surviving insects is examined and the controlling value is calculated by the following equation. Controlling value (%)={1-(Cb×Tai)/(Cai×Tb)}×100 wherein the symbols in the equation represent the following meanings. • Cb: Number of the test insects in non-treated area; • Cai: Number of the surviving insects at the time of the investigation in non-treated area; • Tb: Number of the test insects in treated area; • Tai: Number of the surviving insects at the time of the investigation in treated area; Here, the “non-treated area” represents an area where the same treatment procedure as that of the treated area is done except for not using each test compound.

For the molecule `CCS(=O)(=O)c1c(-n2nc3ccc(C(F)(F)F)cn3c2=O)nc2ccc(C(F)(F)F)cn12` [compound 2], the controlling value is reported as at least 90%.

Source of the values: patent US12234247B2, “Heterocyclic compound and harmful arthropod-controlling composition containing same” (SUMITOMO CHEMICAL COMPANY, LIMITED, priority 2019, dated 2025).
